Data: patent US20190054097A1, “COMPOSITIONS TARGETING SENESCENT CELLS AND THE USES THEREOF” (BioVentures, LLC, priority 2016, published 2019)
Read-outs that look alike come from different tables or passages of the source.

Experiments:
senescent cells = test: Cisplatin-induced peripheral neuropathy (CIPN) in p16-3MR transgenic mice, Von Frey assay and Hot Plate Analgesia Meter; assay type: in vivo; details: GCV 25 mg/kg/day or ABT263 50 mg/kg/day i.p., 5 days per cycle, 2 cycles, FIG. 8-11
Description: CIPN was induced in young adult male and female p16-3MR mice by intraperitoneal (i.p.) injection of cisplatin (Lake Zurich, Ill., USA) at 2.3 mg/kg/d for 5 days per cycle for 2 cycles with an interval of 5 days between the cycles. The induction of CIPN was measured by analyzing the mechanical sensitivity using the Von Frey assay the day before Cisplatin treatment and on various day after Cisplatin treatment. N=5-6 mice per group.
Mice were treated as described in FIG. 8. The induction of CIPN was measured by analyzing the sensitivity to thermal allodynia using the Hot Plate Analgesia Meter on various day after Cisplatin treatment. N=5-6 mice per group.
To determine the effect of senescent cells on the induction of CIPN, cisplatin-treated mice were administered with vehicle, ganciclovir (GCV) at 25 mg/kg/day for 5 days per cycle for 2 cycles with an interval of 17 days between the cycles, or ABT263 at 50 mg/kg/day for 5 days per cycle for 2 cycles with an interval of 17 days between the cycles by i.p. injection at the indicated times after cisplatin treatment. […] The induction of CIPN was measured by analyzing the mechanical sensitivity using the Von Frey assay (FIG. 8 and FIG. 9) and by analyzing the sensitivity to thermal allodynia using the Hot Plate Analgesia Meter (FIG. 10 and FIG. 11) the day before Cisplatin treatment and on various day after Cisplatin treatment.

[1] = tested on: IR-induced senescent WI38 cells (IR-SC); test: Viability of IR-induced senescent WI38 cells, PI staining and flow cytometry, 72 hours; assay type: cell-based; details: for EC50: IR-induced senescent WI38 cells, 72 hours, viable PI- cells as percentage of vehicle control; for Ratio NSC/SC: ratio of WI38 EC50 in normal cells to EC50 in IR-induced senescent cells
Description: (§1) Normal WI38 (NSC) and IR-induced senescent WI38 cells (IR-SC) were incubated with vehicle or increasing concentrations of compounds of Formula (I) or Formula (II) for 72 hours. The cells were digested with 0.25% trypsin and 1 mM EDTA, and harvested in PBS containing 2% FBS. After incubation with propidium iodide (PI, 100 ng/ml) in PBS at room temperature for 1 minute, cells were centrifuged at 1,200 rpm for 6 minutes to remove PI and then resuspended in PBS containing 2% FBS for analysis using a flow cytometer. Viable cells (PI− cells) were analyzed by flow cytometry at a constant flow rate to count the number of cells and calculated as a percentage of control cells treated with vehicle. Table 1 depicts the EC50 values of the compounds of Formula (I) and compounds of Formula (II) against normal WI38 and IR-induced senescent WI38.

Normal WI38 (NSC) = test: Viability of normal WI38 cells, PI staining and flow cytometry, 72 hours; assay type: cell-based
Description: as §1

RS4; 11 cancer cells = test: Cancer cell viability by MTS, 72 hours; assay type: cell-based; details: 11 cells
Description: (§2) RS4; 11 and NCI-H146 cancer cells were incubated with vehicle or increasing concentrations of compounds of Formula (I) and Formula (II). At 72 hours post-treatment cell viability was measured by MTS and EC50 was calculated as a percentage of control cells treated with vehicle. Table 1 depicts the EC50 values of compounds of Formula (I) and Formula (II) against RS4; 11 and NCI-H146.

NCI-H146 cancer cells = test: Cancer cell viability by MTS, 72 hours; assay type: cell-based
Description: as §2

[2] = Homo sapiens, WI-38, viable PI- cells as percentage of vehicle control
[3] = viable PI- cells as percentage of vehicle control

Nc1nc(O)c2ncn(COC(CO)CO)c2n1 [GCV, ganciclovir]
Reversal of cisplatin-induced peripheral neuropathy (senescent cells): reversed cisplatin-induced peripheral neuropathy (CIPN)

CC1(C)CCC(c2ccc(Cl)cc2)=C(CN2CCN(c3ccc(C(=O)NS(=O)(=O)c4ccc(N[C@H](CCN5CCN(C(=O)CCCn6cc(COCCOCCNc7cccc8c7C(=O)N(C7CCC(=O)NC7=O)C8=O)nn6)CC5)CSc5ccccc5)c(S(=O)(=O)C(F)(F)F)c4)cc3)CC2)C1 (stereo partly drawn) [PZ-15227, 4-(4-((4′-chloro-4,4-dimethyl-3,4,5,6-tetrahydro-[1,1′-biphenyl]-2-yl)methyl)piperazin-1-yl)-N-((4-(((2R)-4-(4-(4-(4-((2-(2-((2-(2,6-dioxopiperidin-3-yl)-1,3-dioxoisoindolin-4-yl)amino)ethoxy)ethoxy)methyl)-1H-1,2,3-triazol-1-yl)butanoyl)piperazin-1-yl)-1-(phenylthio)butan-2-yl)amino)-3-((trifluoromethyl)sulfonyl)phenyl)sulfonyl)benzamide]
EC50 ([1]; Homo sapiens, WI-38): 108 nM | Ratio NSC/SC [1]: >92 | EC50 (Normal WI38 (NSC); [2]): > 10000 nM | EC50 (RS4; 11 cancer cells; Homo sapiens): 114 nM | EC50 (NCI-H146 cancer cells; Homo sapiens): 68.9 nM

CC(C)(C)OC(=O)N1CCN(CC#Cc2ccc(OCCCc3sc(N4CCc5cccc(C(=O)Nc6nc7ccccc7s6)c5C4)nc3C(=O)O)c(F)c2)CC1 [XZ-13861]
Selective inhibition of IR-SC WI38 cells versus normal WI38 cells ([1]; FIG. 2A, FIG. 2B, dose dependent): selectively inhibits IR-SC WI38 cells but not normal WI38 cells in a dose-dependent manner | EC50 [1]: 3120 nM | EC50 (Normal WI38 (NSC); [3]): 32800 nM

Cc1ncsc1-c1ccc(CNC(=O)[C@@H]2C[C@@H](O)CN2C(=O)[C@@H](NC(=O)COCCOCCOCc2cn(CCCC(=O)N3CCN(CC#Cc4ccc(OCCCc5sc(N6CCc7cccc(C(=O)Nc8nc9ccccc9s8)c7C6)nc5C(=O)O)c(F)c4)CC3)nn2)C(C)(C)C)cc1 [XZ-14455, 2-(8-(benzo[d]thiazol-2-ylcarbamoyl)-3,4-dihydroisoquinolin-2(1H)-yl)-5-(3-(2-fluoro-4-(3-(4-(4-(4-((S)-12-((2S,4R)-4-hydroxy-2-((4-(4-methylthiazol-5-14)benzyl)carbamoyl)pyrrolidine-1-carbonyl)-13,13-dimethyl-10-oxo-2,5,8-trioxa-11-azatetradecyl)-1H-1,2,3-triazol-1-yl)butanoyl)piperazin-1-yl)prop-1-yn-1-yl)phenoxy)propyl)thiazole-4-carboxylic acid]
EC50 [1]: 1470 nM | Ratio NSC/SC [1]: 3.40 | EC50 (Normal WI38 (NSC); [3]): 5000 nM | EC50 (RS4; 11 cancer cells): > 2000 nM | EC50 (NCI-H146 cancer cells): > 2000 nM

CC1(C)CCC(c2ccc(Cl)cc2)=C(CN2CCN(c3ccc(C(=O)NS(=O)(=O)c4ccc(N[C@H](CCN5CCN(C(=O)COCCOCCOCCNc6cccc7c6C(=O)N(C6CCC(=O)NC6=O)C7=O)CC5)CSc5ccccc5)c(S(=O)(=O)C(F)(F)F)c4)cc3)CC2)C1 (stereo partly drawn) [XZ-14510, 4-(4-((4′-chloro-4,4-dimethyl-3,4,5,6-tetrahydro-[1,1′-biphenyl]-2-yl)methyl)piperazin-1-yl)-N-((4-(((2R)-4-(4-(2-(2-(2-(2-((2-(2,6-dioxopiperidin-3-yl)-1,3-dioxoisoindolin-4-yl)amino)ethoxy)ethoxy)ethoxy)acetyl)piperazin-1-yl)-1-(phenylthio)butan-2-yl)amino)-3-((trifluoromethyl)sulfonyl)phenyl)sulfonyl)benzamide]
Ratio NSC/SC [1]: >56

CC1(C)CCC(CN2CCN(c3ccc(C(=O)NS(=O)(=O)c4ccc(NCC5CCN(C(=O)CCCn6cc(COCCOCCOCCNc7cccc8c7C(=O)N(C7CCC(=O)NC7=O)C8=O)nn6)CC5)c([N+](=O)[O-])c4)c(Oc4cnc5[nH]ccc5c4)c3)CC2)=C(c2ccc(Cl)cc2)C1 (stereo not shown) [XZ-14523, 2-((1H-pyrrolo[2,3-b]pyridin-5-yl)oxy)-4-(4-((4′-chloro-5,5-dimethyl-3,4,5,6-tetrahydro-[1,1′-biphenyl]-2-yl)methyl)piperazin-1-yl)-N-((4-(((1-(4-(4-((2-(2-(2-((2-(2,6-dioxopiperidin-3-yl)-1,3-dioxoisoindolin-4-14)amino)ethoxy)ethoxy)ethoxy)methyl)-1H-1,2,3-triazol-1-yl)butanoyl)piperidin-4-yl)methyl)amino)-3-nitrophenyl)sulfonyl)benzamide]
EC50 [1]: > 10000 nM | EC50 (Normal WI38 (NSC); [3]): > 10000 nM | EC50 (RS4; 11 cancer cells): 161 nM | EC50 (NCI-H146 cancer cells): 1260 nM

CC1(C)CCC(c2ccc(Cl)cc2)=C(CN2CCN(c3ccc(C(=O)NS(=O)(=O)c4ccc(N[C@H](CCN5CCN(CCOCCOCCOCCNc6cccc7c6C(=O)N(C6CCC(=O)NC6=O)C7=O)CC5)CSc5ccccc5)c(S(=O)(=O)C(F)(F)F)c4)cc3)CC2)C1 (stereo partly drawn) [XZ-15418, 4-(4-((4′-chloro-4,4-dimethyl-3,4,5,6-tetrahydro-[1,1′-biphenyl]-2-yl)methyl)piperazin-1-yl)-N-((4-(((2R)-4-(4-(2-(2-(2-(2-((2-(2,6-dioxopiperidin-3-yl)-1,3-dioxoisoindolin-4-yl)amino)ethoxy)ethoxy)ethoxy)ethyl)piperazin-1-yl)-1-(phenylthio)butan-2-yl)amino)-3-((trifluoromethyl)sulfonyl)phenyl)sulfonyl)benzamide]
EC50 ([1]; Homo sapiens, WI-38): 172 nM | EC50 (Normal WI38 (NSC); [2]): > 10000 nM | EC50 (RS4; 11 cancer cells; Homo sapiens): 12.3 nM
